Measurements published in patent publication US8247211B2, “Glycopeptide antibiotics” (American Cyanamid Company, priority 2001, dated 2012).

Assays:
Test in all cases: In vitro antibacterial evaluation: minimum inhibitory concentration (MIC), broth dilution method
Type in all cases: cell-based
[1] = system: Enterococcus sp.
In short: (§1)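 NCCLS M7-A2 broth dilution with Mueller-Hinton II, testing 64-0.06 μg/mL antibiotic against 5×10^5 CFU/mL inocula. Test strains include recent methicillin-, penicillin- or vancomycin-resistant clinical isolates. MIC is the lowest concentration preventing growth.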

[2] = system: Streptococcus sp.
In short: as §1

[3] = system: Escherichia coli
In short: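 Inoculum: 5×10^5 CFU/mL. Range: 64-0.06 μg/mL. Medium: Muller-Hinton II […]; NCCLS M7-A2 broth dilution. Endpoint: lowest concentration inhibiting growth. Strains include methicillin-, penicillin- and/or vancomycin-resistant clinical isolates.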

[4] = system: Staphylococcus sp.; settings: broth dilution, 18 hours at 35° C.
In short: as §1

Di-N-(4-tert-butylbenzyl)-cyclo[glycyl-β-methylphenylalanyl-O-(4-O-hexopyranosylhexopyranosyl)tyrosyl-3-(2-iminoimidazolidin-4-yl)seryl-3-(3-hexopyranosyl-2-iminoimidazolidin-4-yl)serylseryl] [Example 60a]
64 µg/mL: MIC Streptococcus pneumoniae (GC 1894) ([2]; Streptococcus pneumoniae (GC 1894), broth dilution, 18 hours at 35° C.) | MIC Streptococcus pneumoniae (GC 1894) ([2]; strain GC 1894)
16 µg/mL: MIC Escherichia coli (GC 4560) ([3]; strain GC 4560)
128 µg/mL: MIC Enterococcus avium (GC 4558) ([1]; Enterococcus avium (GC 4558), broth dilution, 18 hours at 35° C.) | MIC Enterococcus faecalis (GC 4553) ([1]; Enterococcus faecalis (GC 4553), broth dilution, 18 hours at 35° C.) | MIC Enterococcus faecium (GC 4557) ([1]; Enterococcus faecium (GC 4557), broth dilution, 18 hours at 35° C.) | MIC Enterococcus faecalis (GC 4553) ([1]; strain GC 4553) | MIC Enterococcus faecium (GC 4557) ([1]; strain GC 4557) | MIC Enterococcus avium (GC 4558) ([1]; strain GC 4558) | MIC Streptococcus pneumoniae (GC 4565) ([2]; Streptococcus pneumoniae (GC 4565), broth dilution, 18 hours at 35° C.) | MIC Streptococcus pneumoniae (GC 4565) ([2]; strain GC 4565)
>128 µg/mL: MIC Enterococcus faecalis (ATCC 29212) ([1]; Enterococcus faecalis (ATCC 29212), broth dilution, 18 hours at 35° C.) | MIC Enterococcus faecalis (GC 2242) ([1]; Enterococcus faecalis (GC 2242), broth dilution, 18 hours at 35° C.) | MIC Enterococcus faecalis (GC 2691) ([1]; Enterococcus faecalis (GC 2691), broth dilution, 18 hours at 35° C.) | MIC Enterococcus faecalis (GC 3059) ([1]; Enterococcus faecalis (GC 3059), broth dilution, 18 hours at 35° C.) | MIC Enterococcus faecalis (GC 4552) ([1]; Enterococcus faecalis (GC 4552), broth dilution, 18 hours at 35° C.) | MIC Enterococcus faecalis (GC 4554) ([1]; Enterococcus faecalis (GC 4554), broth dilution, 18 hours at 35° C.) | MIC Enterococcus faecalis (GC 6189) ([1]; Enterococcus faecalis (GC 6189), broth dilution, 18 hours at 35° C.) | MIC Enterococcus faecium (GC 2243) ([1]; Enterococcus faecium (GC 2243), broth dilution, 18 hours at 35° C.) | MIC Enterococcus faecium (GC 4556) ([1]; Enterococcus faecium (GC 4556), broth dilution, 18 hours at 35° C.) | MIC Enterococcus faecalis (ATCC 29212) ([1]; strain ATCC 29212) | MIC Enterococcus faecalis (GC 2242) ([1]; strain GC 2242) | MIC Enterococcus faecium (GC 2243) ([1]; strain GC 2243) | MIC Enterococcus faecalis (GC 2691) ([1]; strain GC 2691) | MIC Enterococcus faecalis (GC 3059) ([1]; strain GC 3059) | MIC Enterococcus faecalis (GC 4552) ([1]; strain GC 4552) | MIC Enterococcus faecalis (GC 4554) ([1]; strain GC 4554) | MIC Enterococcus faecium (GC 4556) ([1]; strain GC 4556) | MIC Enterococcus faecalis (GC 6189) ([1]; strain GC 6189) | MIC Streptococcus agalactiae (GC 4564) ([2]; Streptococcus agalactiae (GC 4564), broth dilution, 18 hours at 35° C.) | MIC Streptococcus pneumoniae (ATCC 6301) ([2]; Streptococcus pneumoniae (ATCC 6301), broth dilution, 18 hours at 35° C.) | MIC Streptococcus pyogenes (GC 4563) ([2]; Streptococcus pyogenes (GC 4563), broth dilution, 18 hours at 35° C.) | MIC Streptococcus pneumoniae (ATCC 6301) ([2]; strain ATCC 6301) | MIC Streptococcus pyogenes (GC 4563) ([2]; strain GC 4563) | MIC Streptococcus agalactiae (GC 4564) ([2]; strain GC 4564) | MIC Escherichia coli (ATCC 25922) ([3]; strain ATCC 25922) | MIC Escherichia coli (GC 4559) ([3]; strain GC 4559) | MIC Coagulase Negative Staphylococcus (GC 4547) [4] | MIC Coagulase Negative Staphylococcus (GC 4548) [4] | MIC Coagulase Negative Staphylococcus (GC 4549) [4] | MIC Coagulase Negative Staphylococcus (GC 4551) [4] | MIC Coagulase Negative Staphylococcus (GC 6257) [4] | MIC Staphylococcus aureus (ATCC 29213) [4] | MIC Staphylococcus aureus (GC 1131) [4] | MIC Staphylococcus aureus (GC 3051) [4] | MIC Staphylococcus aureus (GC 3053) [4] | MIC Staphylococcus aureus (GC 4541) [4] | MIC Staphylococcus aureus (GC 4542) [4] | MIC Staphylococcus aureus (GC 4544) [4] | MIC Staphylococcus aureus (GC 4545) [4] | MIC Staphylococcus aureus SMITH (GC 4543) [4] | MIC Staphylococcus haemolyticus (GC 4546) [4] | MIC Staphylococcus aureus (ATCC 29213) ([4]; strain ATCC 29213) | MIC Staphylococcus aureus (GC 1131) ([4]; strain GC 1131) | MIC Staphylococcus aureus (GC 3051) ([4]; strain GC 3051) | MIC Staphylococcus aureus (GC 3053) ([4]; strain GC 3053) | MIC Staphylococcus aureus (GC 4541) ([4]; strain GC 4541) | MIC Staphylococcus aureus (GC 4542) ([4]; strain GC 4542) | MIC Staphylococcus aureus (GC 4544) ([4]; strain GC 4544) | MIC Staphylococcus aureus (GC 4545) ([4]; strain GC 4545) | MIC Staphylococcus haemolyticus (GC 4546) ([4]; strain GC 4546) | MIC Coagulase Negative Staphylococcus (GC 4547) ([4]; strain GC 4547) | MIC Coagulase Negative Staphylococcus (GC 4548) ([4]; strain GC 4548) | MIC Coagulase Negative Staphylococcus (GC 4549) ([4]; strain GC 4549) | MIC Coagulase Negative Staphylococcus (GC 4551) ([4]; strain GC 4551) | MIC Coagulase Negative Staphylococcus (GC 6257) ([4]; strain GC 6257) | MIC Staphylococcus aureus-SMITH (GC 4543) ([4]; strain SMITH GC 4543)
